{"source": "ChEMBL document CHEMBL5465560", "about": "“Selectivity Literature for EUbOPEN Chemogenomic Library” (2024)", "key": {"[1]": {"target": "T1, Serine/threonine-protein kinase Nek8 (Homo sapiens) (UniProt Q86SG6)", "T1 sequence (whole entry)": "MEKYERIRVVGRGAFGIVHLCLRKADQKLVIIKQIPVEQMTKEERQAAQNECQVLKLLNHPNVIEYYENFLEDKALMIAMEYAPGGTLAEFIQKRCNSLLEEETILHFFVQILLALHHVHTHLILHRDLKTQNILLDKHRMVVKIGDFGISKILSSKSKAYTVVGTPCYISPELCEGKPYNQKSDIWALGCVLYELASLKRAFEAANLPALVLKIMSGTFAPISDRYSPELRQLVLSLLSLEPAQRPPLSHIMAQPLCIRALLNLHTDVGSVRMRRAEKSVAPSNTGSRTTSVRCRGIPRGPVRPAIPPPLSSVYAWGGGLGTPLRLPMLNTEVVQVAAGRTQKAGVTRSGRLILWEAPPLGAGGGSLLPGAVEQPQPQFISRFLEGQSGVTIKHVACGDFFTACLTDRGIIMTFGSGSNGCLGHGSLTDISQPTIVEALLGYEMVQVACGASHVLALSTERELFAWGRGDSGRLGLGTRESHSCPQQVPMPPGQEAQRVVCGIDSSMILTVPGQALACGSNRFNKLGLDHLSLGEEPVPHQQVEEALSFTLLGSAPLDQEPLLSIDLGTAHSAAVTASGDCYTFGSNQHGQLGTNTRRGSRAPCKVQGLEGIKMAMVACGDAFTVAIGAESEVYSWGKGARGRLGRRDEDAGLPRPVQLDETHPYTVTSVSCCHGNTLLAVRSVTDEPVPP", "assay": "Selectivity interaction (Kinase panel (KiNativ target engagement assay in Jurkat cells)) EUB0001635a NEK8", "format": "cell-based", "settings": "at 1 µM"}, "[2]": {"target": "Proto-oncogene tyrosine-protein kinase Src (Homo sapiens, UniProt P12931)", "sequence (P12931 2-536 limits assumed)": "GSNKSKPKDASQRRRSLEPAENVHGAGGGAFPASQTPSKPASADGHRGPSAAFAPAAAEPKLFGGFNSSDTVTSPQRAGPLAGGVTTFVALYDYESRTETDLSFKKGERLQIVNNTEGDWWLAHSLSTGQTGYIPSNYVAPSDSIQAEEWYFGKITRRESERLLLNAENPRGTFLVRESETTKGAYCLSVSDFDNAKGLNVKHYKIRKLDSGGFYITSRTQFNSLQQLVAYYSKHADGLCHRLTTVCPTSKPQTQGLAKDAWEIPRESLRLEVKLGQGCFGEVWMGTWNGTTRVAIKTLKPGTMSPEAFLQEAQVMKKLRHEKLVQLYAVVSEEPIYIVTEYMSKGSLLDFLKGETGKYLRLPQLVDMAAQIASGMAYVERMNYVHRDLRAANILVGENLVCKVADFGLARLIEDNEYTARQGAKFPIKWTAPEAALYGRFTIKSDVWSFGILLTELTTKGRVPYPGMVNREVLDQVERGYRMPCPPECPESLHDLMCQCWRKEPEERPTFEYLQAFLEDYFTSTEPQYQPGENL", "assay": "Selectivity interaction (Kinase panel (enzymatic assay)) EUB0000595a SRC"}, "[3]": {"target": "MAP/microtubule affinity-regulating kinase 3 (Homo sapiens) (UniProt P27448)", "assay": "Selectivity interaction (Kinase panel (DSF assay)) EUB0001559a MARK3"}, "[4]": {"target": "Serine/threonine-protein kinase PAK 1 (Homo sapiens) (UniProt Q13153)", "sequence (Q13153 whole entry)": "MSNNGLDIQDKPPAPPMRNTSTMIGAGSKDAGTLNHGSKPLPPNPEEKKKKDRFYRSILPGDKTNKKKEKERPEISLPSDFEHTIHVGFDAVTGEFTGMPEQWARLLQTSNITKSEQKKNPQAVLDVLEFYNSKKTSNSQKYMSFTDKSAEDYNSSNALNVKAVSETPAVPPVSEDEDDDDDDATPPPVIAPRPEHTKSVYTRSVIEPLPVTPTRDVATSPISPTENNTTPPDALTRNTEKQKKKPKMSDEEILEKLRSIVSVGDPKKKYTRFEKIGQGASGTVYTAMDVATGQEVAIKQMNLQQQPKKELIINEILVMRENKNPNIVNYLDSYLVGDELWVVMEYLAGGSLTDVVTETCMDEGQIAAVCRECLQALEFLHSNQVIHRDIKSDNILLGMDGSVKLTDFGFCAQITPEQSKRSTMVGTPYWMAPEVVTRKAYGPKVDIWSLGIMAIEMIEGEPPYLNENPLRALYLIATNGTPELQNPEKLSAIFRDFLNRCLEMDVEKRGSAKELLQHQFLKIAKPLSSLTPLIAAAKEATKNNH", "assay": "Selectivity interaction (KinomeScan (DiscoverX)) EUB0000045b PAK1"}, "[5]": {"tested_on": "Proto-oncogene tyrosine-protein kinase receptor Ret (Homo sapiens), P07949 [G691S]", "sequence (P07949 whole entry G691S)": "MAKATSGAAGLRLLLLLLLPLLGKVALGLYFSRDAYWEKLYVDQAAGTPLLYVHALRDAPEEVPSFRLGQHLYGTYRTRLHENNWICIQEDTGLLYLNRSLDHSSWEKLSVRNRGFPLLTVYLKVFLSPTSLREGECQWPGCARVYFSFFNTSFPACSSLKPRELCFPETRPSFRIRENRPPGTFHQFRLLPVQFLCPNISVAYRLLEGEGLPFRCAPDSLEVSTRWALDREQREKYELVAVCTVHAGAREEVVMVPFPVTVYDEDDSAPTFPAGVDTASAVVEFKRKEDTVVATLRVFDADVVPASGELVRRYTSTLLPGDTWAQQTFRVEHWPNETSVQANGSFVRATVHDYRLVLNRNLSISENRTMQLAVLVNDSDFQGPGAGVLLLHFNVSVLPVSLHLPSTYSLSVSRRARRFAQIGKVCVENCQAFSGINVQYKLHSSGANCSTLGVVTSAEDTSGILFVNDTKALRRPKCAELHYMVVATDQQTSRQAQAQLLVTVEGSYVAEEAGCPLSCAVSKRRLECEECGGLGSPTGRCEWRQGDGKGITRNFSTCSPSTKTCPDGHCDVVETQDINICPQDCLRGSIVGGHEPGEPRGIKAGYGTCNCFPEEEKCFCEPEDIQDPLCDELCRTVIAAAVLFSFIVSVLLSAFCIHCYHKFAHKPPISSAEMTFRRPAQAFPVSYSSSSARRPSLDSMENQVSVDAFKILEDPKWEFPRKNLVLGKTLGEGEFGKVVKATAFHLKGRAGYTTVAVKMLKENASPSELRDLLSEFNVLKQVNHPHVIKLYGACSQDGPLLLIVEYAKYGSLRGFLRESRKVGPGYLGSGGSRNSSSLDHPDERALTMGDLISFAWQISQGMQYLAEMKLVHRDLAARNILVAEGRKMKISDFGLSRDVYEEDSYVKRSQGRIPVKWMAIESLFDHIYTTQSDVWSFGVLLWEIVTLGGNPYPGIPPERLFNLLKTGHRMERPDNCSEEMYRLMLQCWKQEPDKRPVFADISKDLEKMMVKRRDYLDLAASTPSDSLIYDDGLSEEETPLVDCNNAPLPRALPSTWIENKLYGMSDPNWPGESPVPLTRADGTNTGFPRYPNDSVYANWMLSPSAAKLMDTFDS", "assay": "(§1) Selectivity interaction (LanthaScreen Eu Kinase Binding Assay) EUB0001632a RET", "settings": "at 10 µM"}, "[6]": {"tested_on": "Proto-oncogene tyrosine-protein kinase receptor Ret (Homo sapiens), P07949 [M918T]", "sequence (P07949 whole entry M918T)": "as the sequence (P07949 whole entry G691S) above, with S691G, M918T counted along it", "assay": "as §1", "settings": "at 10 µM"}, "[7]": {"tested_on": "Proto-oncogene tyrosine-protein kinase receptor Ret (Homo sapiens), P07949 [V804M]", "sequence (P07949 whole entry V804M)": "as the sequence (P07949 whole entry G691S) above, with S691G, V804M counted along it", "assay": "as §1", "settings": "at 10 µM"}, "[8]": {"tested_on": "Tyrosine-protein kinase ABL1 (Homo sapiens), P00519 [F317L]", "settings": "at 10 µM"}, "[9]": {"target": "T2, Aurora kinase A (Homo sapiens) (UniProt O14965)", "T2 sequence (whole entry)": "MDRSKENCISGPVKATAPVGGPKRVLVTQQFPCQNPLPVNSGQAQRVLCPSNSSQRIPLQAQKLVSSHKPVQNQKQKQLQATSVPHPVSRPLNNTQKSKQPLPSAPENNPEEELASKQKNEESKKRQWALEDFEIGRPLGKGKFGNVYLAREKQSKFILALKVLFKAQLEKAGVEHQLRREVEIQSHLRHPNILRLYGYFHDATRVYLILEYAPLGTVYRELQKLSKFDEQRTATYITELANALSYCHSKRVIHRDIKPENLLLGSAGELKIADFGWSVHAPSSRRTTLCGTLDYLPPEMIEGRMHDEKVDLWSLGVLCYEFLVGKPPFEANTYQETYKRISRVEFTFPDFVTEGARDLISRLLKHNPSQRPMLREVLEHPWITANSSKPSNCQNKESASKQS", "assay": "Selectivity interaction (Upstate Kinase Profiler service (Millipore)) EUB0000056c STK6", "settings": "at 1 µM"}, "[10]": {"target": "T3, Interleukin-1 receptor-associated kinase 4 (Homo sapiens) (UniProt Q9NWZ3)", "T3 sequence (whole entry)": "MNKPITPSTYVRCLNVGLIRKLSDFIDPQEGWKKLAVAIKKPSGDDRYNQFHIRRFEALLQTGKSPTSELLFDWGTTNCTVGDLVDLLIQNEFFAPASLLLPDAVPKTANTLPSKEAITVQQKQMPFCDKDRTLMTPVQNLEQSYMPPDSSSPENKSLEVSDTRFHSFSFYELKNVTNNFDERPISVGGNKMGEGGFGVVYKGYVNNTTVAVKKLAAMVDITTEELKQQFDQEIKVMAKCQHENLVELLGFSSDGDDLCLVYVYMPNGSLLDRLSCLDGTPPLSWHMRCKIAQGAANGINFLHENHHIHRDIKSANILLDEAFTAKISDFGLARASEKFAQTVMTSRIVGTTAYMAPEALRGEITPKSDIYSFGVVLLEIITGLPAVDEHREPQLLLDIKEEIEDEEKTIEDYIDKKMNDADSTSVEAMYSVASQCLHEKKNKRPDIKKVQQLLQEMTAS", "assay": "Selectivity interaction (ProQinase) EUB0000171b IRAK4"}, "[11]": {"target": "Mitogen-activated protein kinase 7 (Homo sapiens) (UniProt Q13164)", "assay": "Selectivity interaction (ActivX KiNativ screen (ex vivo kinase selectivity in human PBMCs)) EUB0001619a MAPK7", "format": "cell-based", "settings": "PBMC, at 1 µM"}, "[12]": {"target": "Macrophage colony-stimulating factor 1 receptor (Homo sapiens) (UniProt P07333)", "sequence (P07333 whole entry)": "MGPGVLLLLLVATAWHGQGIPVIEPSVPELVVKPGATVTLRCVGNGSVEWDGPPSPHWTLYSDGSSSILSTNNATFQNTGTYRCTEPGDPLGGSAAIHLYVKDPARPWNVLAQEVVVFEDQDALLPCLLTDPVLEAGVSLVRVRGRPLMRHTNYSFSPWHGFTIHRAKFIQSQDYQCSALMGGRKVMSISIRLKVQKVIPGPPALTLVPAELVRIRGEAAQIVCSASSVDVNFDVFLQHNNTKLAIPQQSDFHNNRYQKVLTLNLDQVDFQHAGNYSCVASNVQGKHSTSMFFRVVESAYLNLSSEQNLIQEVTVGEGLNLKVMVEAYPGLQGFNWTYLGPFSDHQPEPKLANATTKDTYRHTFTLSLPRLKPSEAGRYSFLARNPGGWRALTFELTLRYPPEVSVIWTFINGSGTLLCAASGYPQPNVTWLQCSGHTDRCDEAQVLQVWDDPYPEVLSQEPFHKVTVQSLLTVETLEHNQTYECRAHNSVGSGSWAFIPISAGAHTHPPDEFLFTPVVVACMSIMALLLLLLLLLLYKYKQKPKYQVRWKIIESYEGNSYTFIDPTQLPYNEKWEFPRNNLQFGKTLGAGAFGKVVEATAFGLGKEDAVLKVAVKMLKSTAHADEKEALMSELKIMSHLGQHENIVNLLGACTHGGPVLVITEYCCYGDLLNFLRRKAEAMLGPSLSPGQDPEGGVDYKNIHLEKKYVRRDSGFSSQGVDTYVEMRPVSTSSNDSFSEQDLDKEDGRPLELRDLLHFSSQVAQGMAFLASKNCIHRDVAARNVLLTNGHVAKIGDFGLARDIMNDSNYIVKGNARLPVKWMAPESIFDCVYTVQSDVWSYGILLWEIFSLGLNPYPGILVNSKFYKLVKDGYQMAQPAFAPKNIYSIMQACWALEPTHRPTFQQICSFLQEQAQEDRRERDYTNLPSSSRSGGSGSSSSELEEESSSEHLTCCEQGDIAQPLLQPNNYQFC", "assay": "Selectivity interaction (KinomeScan (DiscoverX)) EUB0000618a CSF1R", "settings": "at 10 µM"}, "[13]": {"target": "Cyclin-dependent kinase-like 3 (Homo sapiens) (UniProt Q8IVW4)", "sequence (Q8IVW4 whole entry, looked up)": "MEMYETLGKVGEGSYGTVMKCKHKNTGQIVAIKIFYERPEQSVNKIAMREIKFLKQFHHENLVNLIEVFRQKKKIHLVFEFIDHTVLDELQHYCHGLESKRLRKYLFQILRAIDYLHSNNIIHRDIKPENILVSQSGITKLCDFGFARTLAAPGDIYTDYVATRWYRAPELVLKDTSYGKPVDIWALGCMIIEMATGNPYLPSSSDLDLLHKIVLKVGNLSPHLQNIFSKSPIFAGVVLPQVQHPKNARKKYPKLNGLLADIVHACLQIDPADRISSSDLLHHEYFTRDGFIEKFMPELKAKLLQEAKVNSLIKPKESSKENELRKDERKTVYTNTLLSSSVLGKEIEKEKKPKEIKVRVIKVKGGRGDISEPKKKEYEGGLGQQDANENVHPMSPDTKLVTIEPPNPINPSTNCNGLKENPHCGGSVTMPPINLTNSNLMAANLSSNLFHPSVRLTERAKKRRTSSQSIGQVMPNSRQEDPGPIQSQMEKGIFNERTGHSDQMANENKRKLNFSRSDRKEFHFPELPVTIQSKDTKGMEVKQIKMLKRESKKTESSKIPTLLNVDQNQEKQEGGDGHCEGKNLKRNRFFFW", "assay": "Selectivity interaction (KinomeScan (DiscoverX)) EUB0000618a CDKL3", "settings": "at 10 µM"}, "[14]": {"target": "Ribosomal protein S6 kinase alpha-1 (Homo sapiens, UniProt Q15418)", "sequence (Q15418 whole entry)": "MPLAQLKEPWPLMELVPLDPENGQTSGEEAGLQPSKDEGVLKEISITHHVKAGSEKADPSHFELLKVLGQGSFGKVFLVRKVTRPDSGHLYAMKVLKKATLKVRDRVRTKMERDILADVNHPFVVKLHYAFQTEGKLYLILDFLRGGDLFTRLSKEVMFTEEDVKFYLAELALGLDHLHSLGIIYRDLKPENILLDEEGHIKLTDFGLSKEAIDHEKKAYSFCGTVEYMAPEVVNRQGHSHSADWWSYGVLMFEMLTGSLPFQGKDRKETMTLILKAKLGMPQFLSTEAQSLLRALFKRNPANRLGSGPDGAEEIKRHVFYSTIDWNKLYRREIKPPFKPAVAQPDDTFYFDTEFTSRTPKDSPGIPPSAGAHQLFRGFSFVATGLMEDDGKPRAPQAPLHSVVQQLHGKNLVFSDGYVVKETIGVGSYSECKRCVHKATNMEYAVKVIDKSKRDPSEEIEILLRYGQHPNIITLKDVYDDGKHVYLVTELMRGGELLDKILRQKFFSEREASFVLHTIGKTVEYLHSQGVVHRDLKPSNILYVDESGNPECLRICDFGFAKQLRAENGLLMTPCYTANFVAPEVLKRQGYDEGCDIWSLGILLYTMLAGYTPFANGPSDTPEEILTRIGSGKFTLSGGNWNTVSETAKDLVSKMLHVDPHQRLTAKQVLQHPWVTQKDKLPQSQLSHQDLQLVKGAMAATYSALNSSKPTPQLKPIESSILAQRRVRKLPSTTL", "assay": "Selectivity interaction (KinomeScan (DiscoverX)) EUB0000618a RPS6KA1", "settings": "at 10 µM"}}, "note": "pIC50: −log10 of the molar value.", "data": [{"smiles": "C=CC(=O)Nc1ccc(C(=O)Nc2[nH]nc3c2CN(C(=O)N[C@H](CN(C)C)c2ccccc2)C3(C)C)cc1", "values": [{"measurement": "% of engagement", "setting": "[1]", "value": -10.5, "unit": "%"}]}, {"smiles": "COCC(=O)NC/C=C/c1ccc2ncnc(Nc3ccc(Oc4ccc(C)nc4)c(C)c3)c2c1", "note": "[CP-724714]", "values": [{"measurement": "pIC50", "setting": "[2]", "value": "< 5.00"}]}, {"smiles": "CN(C(=O)c1cnn2cccnc12)c1cc2c(cc1N1CCOCC1)C(=O)N(C[C@@H](F)C(C)(C)O)C2", "values": [{"measurement": "dTM", "setting": "[3]", "value": 0.7, "unit": "K"}]}, {"smiles": "C=CC(=O)Nc1cc(-n2c(=O)ccc3cnc4ccc(-c5ccc(NS(C)(=O)=O)cc5)cc4c32)ccc1C", "values": [{"measurement": "% of control", "setting": "[4]; at 1 µM", "value": 86, "unit": "%"}, {"measurement": "% of control", "setting": "[4]; at 10 µM", "value": 62, "unit": "%"}]}, {"smiles": "Cn1cc(-n2cnc3c(NCc4nc5cc(Cl)c(Cl)cc5[nH]4)nc(N4CCOCC4)nc32)cn1", "values": [{"measurement": "% of inhibition", "setting": "[5]", "value": -30.5, "unit": "%"}, {"measurement": "% of inhibition", "setting": "[6]", "value": -33.9, "unit": "%"}, {"measurement": "% of inhibition", "setting": "[7]", "value": -50.1, "unit": "%"}]}, {"smiles": "Cc1cc([C@@H](C)Nc2ccccc2C(=O)O)c2nc(N3CCOCC3)cc(=O)n2c1", "note": "[AZD-6482]", "values": [{"measurement": "% of control", "setting": "[8]", "value": 89, "unit": "%"}]}, {"smiles": "Cc1ccc(-c2ccc3c(ccc4sc5c(c43)NC[C@@H](C)NC5=O)n2)cn1", "values": [{"measurement": "% of inhibition", "setting": "[9]", "value": 32, "unit": "%"}]}, {"smiles": "C=CC(=O)Nc1cccc(C(=O)Nc2ccc(Nc3cc(-c4[nH]c(SC)nc4C)ccn3)cc2)c1", "values": [{"measurement": "% of control", "setting": "[10]; at 1 µM", "value": 85, "unit": "%"}, {"measurement": "% of control", "setting": "[10]; at 5 µM", "value": 56, "unit": "%"}]}, {"smiles": "N#Cc1cccc(-c2c[nH]c3ncnc(N4CCOCC4)c23)c1", "values": [{"measurement": "% of inhibition", "setting": "[11]", "value": -6, "unit": "%"}]}, {"smiles": "O[C@H]1CC[C@H](Nc2ncc3nc(Nc4c(F)cc(F)cc4F)n([C@H]4CCOC4)c3n2)CC1", "values": [{"measurement": "% of control", "setting": "[12]", "value": 64, "unit": "%"}, {"measurement": "% of control", "setting": "[13]", "value": 86, "unit": "%"}, {"measurement": "% of control", "setting": "[14]", "value": 70, "unit": "%"}]}]}
